Measured values published in PMC7414031, “Correlation between hemolytic activity, cytotoxicity and systemic in vivo toxicity of synthetic antimicrobial peptides” (Scientific Reports, 2020).
Converted amounts (≈) assume the structure as drawn. Square brackets hold non-standard residues; d marks the D form. Peptide text beside a SMILES is read from it. N(1-naphthylmethyl)Gly = O=C(O)CNCc1cccc2ccccc12; Nphe = O=C(O)CNCc1ccccc1; NBuGly = CCCCNCC(=O)O

How the values were obtained:
in vitro [1] = type: cell-based, bovine; settings: bovine
Experimental: (§1) The haemolytic activity of the 24 structurally related peptides (Table 1) was evaluated in erythrocytes from four different species (human, canine, bovine and rat) employing standard methodology. The subsequent release of haemoglobin was used to assess haemolytic activity as function of peptide and peptidomimetic concentration, with concentrations ranging from 0.15 to 150 µM (Presented in whole in Supplementary information Table S1–S4).
(§2) Human and rat (Sprague–Dawley) blood samples were purchased by Bioreclamation IVT (Westbury, NY, USA), collected in tubes containing heparin as anticoagulant and stored at 4 °C before use. Dog and bovine whole blood was collected from in-house animals at Zoetis Animal Health, Kalamazoo, Michigan and stored at 4 °C in tubes containing heparin as anticoagulant. 10 mL of each whole blood sample were centrifuged at 1,500 × g for 5 min and the resulting plasma fraction was removed from the samples. The pellets were washed with an equal volume (10 mL) of saline, mixing by inversion. The centrifuging and washing steps were repeated 5 times. After the last washing step, a volume of PBS was added, and the resulting samples were diluted 1:10 with PBS to yield an RBC concentration of ~ 5 × 10^8 RBC/mL. The assay was performed in a 384-well polypropylene microplate (Greiner 784201, Greiner Bio-One International, GMBH) through a Bravo Liquid Handling Platform 384 system (Agilent Technologies, Santa Clara, CA, USA) according to the previously published procedures. The compounds were tested in serial 1:1 dilutions in PBS, with final concentrations ranging from 150 to 1.2 µM. Melittin was used as reference lytic peptide. 1% TritonX100 and PBS were used as positive and negative (diluent) controls, respectively. The final concentrations were obtained by adding to the wells 7 µL of each solution, melittin or PBS, followed by 63 µL of RBCs to each well. The plate was sealed, shaken on a plate shaker for 20 s, incubated for one hour at 37 °C. Finally, it was centrifuged at 1,500 × g for 5 min at room temperature. 60 µL of supernatants were removed from all plate wells via a Bravo 384 robot and transferred to a flat-bottomed 384-well plate (Greiner UV-Star #7810801, Greiner Bio-One International, GMBH). The plate was centrifuged at 1,000 g for 1 min to remove air bubbles and optical density was measured at 405 nm using a plate reader. Percentage of haemolysis was calculated with the following equation: %haemolysis=(absorbance of test sample)-absorbance of diluent/absorbance of positive control-absorbance of diluent×100.

Staphylococcus aureus = tested on: Staphylococcus aureus; set-up: method as in PMID 30842436; settings: cited from earlier work
[2] = tested on: Staphylococcus pseudintermedius; settings: cited from earlier work
in vitro [3] = type: cell-based, dog; settings: dog
Experimental: as §1, §2

canine erythrocytes = assay: in vitro; type: cell-based, dog; settings: for IC10 haemolysis: canine erythrocytes; for IC50: red cells of canine
Experimental: as §1, §2

in vitro [4] = type: cell-based, human; settings: human
Experimental: as §1, §2

human erythrocytes = assay: in vitro; type: cell-based; settings: for IC10 haemolysis: human erythrocytes; for IC50: red cells of human
Experimental: as §1, §2

Pseudomonas aeruginosa = tested on: Pseudomonas aeruginosa; set-up: method as in PMID 30842436; settings: cited from earlier work
in vitro [5] = type: cell-based, rat (Sprague–Dawley); settings: Sprague-Dawley, rat
Experimental: as §1, §2

rat erythrocytes = assay: in vitro; type: cell-based, rat (Sprague–Dawley); settings: for IC10 haemolysis: rat erythrocytes; for IC50: red cells of rat
Experimental: as §1, §2

bovine erythrocytes = assay: in vitro; type: cell-based; settings: bovine erythrocytes
Experimental: as §1, §2

Structure (SMILES) | hemolysis at 1 h, 150 µM (in vitro [1]) [%] | MIC against Staphylococcus aureus (Staphylococcus aureus) [µg/mL] | MIC against Staphylococcus pseudintermedius [2] [µg/mL] | hemolysis at 1 h, 150 µM (in vitro [3]) [%] | IC10 haemolysis (canine erythrocytes) [µM] | IC50 (canine erythrocytes) [µM] | hemolysis at 1 h, 150 µM (in vitro [4]) [%] | IC10 haemolysis (human erythrocytes) [µM] | IC50 (human erythrocytes) [µM] | MIC against Pseudomonas aeruginosa (Pseudomonas aeruginosa) [µg/mL] | hemolysis at 1 h, 150 µM (in vitro [5]) [%] | IC10 haemolysis (rat erythrocytes) [µM] | IC50 (rat erythrocytes) [µM] | IC10 haemolysis (bovine erythrocytes) [µM] | Haemolytic activity (in words) (human erythrocytes) | Haemolysis at 80 µM (in words) (canine erythrocytes) | Haemolysis at 80 µM (in words) (human erythrocytes) | Haemolysis at 80 µM (in words) (rat erythrocytes)
CC(C)C[C@@H](NC(=O)[C@H](CCCCN)NC(=O)[C@@H](Cc1ccc2ccccc2c1)NC(=O)[C@@H](Cc1ccccc1)NC(=O)[C@H](N)Cc1ccc2ccccc2c1)C(=O)N[C@@H](CCCCN)C(=O)N[C@@H](CCCCN)C(N)=O [Compound 3, (2-Nal)Ala-Phe-(2-Nal)Ala-Lys-Leu-Lys-Lys] (HELM PEPTIDE1{[N[C@H](Cc1ccc2ccccc2c1)C(=O)[*:2]].[dF].[O=C([C@@H](Cc1ccc2ccccc2c1)N[*:1])[*:2]].K.[dL].K.K.[am]}$$$$V2.0) | < 8 | 32 to 64 | 16 (≈ 15.1 µM) | 10.5 | 118.3 | > 150 | < 8 | > 150 | > 150 | > 64 | < 8 | > 150 | > 150 | – | – | – | – | –
CC(C)C[C@@H](NC(=O)[C@H](CCCCN)NC(=O)[C@@H](N)CCCCN)C(=O)N[C@@H](CCCCN)C(=O)N[C@H](Cc1cccc2ccccc12)C(=O)N[C@H](Cc1ccccc1)C(=O)N[C@H](Cc1cccc2ccccc12)C(N)=O [Compound 10, Lys-Lys-Leu-Lys-(1-Nal)Ala-Phe-(1-Nal)Ala] (HELM PEPTIDE1{K.K.[dL].K.[O=C([C@@H](Cc1cccc2ccccc12)N[*:1])[*:2]].[dF].[O=C([C@@H](Cc1cccc2ccccc12)N[*:1])[*:2]].[am]}$$$$V2.0) | < 8 | 16 (≈ 15.1 µM) | 4 to 8 | 36.3 | 43.4 | > 150 | < 8 | > 150 | > 150 | 16 to 32 | < 8 | > 150 | > 150 | – | – | – | – | –
CC(C)C[C@@H](NC(=O)[C@H](CCCCN)NC(=O)[C@H](CCCCN)NC(=O)[C@@H](N)CCCCN)C(=O)N[C@H](Cc1ccc2ccccc2c1)C(=O)N[C@H](Cc1ccccc1)C(=O)N[C@H](Cc1ccc2ccccc2c1)C(N)=O [Compound 12, Lys-Lys-Lys-Leu-(2-Nal)Ala-Phe-(2-Nal)Ala] (HELM PEPTIDE1{K.K.K.[dL].[O=C([C@@H](Cc1ccc2ccccc2c1)N[*:1])[*:2]].[dF].[O=C([C@@H](Cc1ccc2ccccc2c1)N[*:1])[*:2]].[am]}$$$$V2.0) | < 8 | 8 to 16 | 2 to 4 | 50.2 | 29.3 | > 150 | 43.5 | 34.6 | > 150 | 32 (≈ 30.3 µM) | 17.9 | 105.8 | > 150 | – | – | – | – | –
CC(C)C[C@H](NC(=O)[C@H](CCCCN)NC(=O)[C@H](Cc1ccc2ccccc2c1)NC(=O)[C@H](Cc1ccccc1)NC(=O)[C@@H](N)Cc1ccc2ccccc2c1)C(=O)N[C@@H](CCCCN)C(=O)N[C@@H](CCCCN)C(N)=O [Compound 13, (2-Nal)Ala-Phe-(2-Nal)Ala-Lys-Leu-Lys-Lys] (HELM PEPTIDE1{[N[C@@H](Cc1ccc2ccccc2c1)C(=O)[*:2]].F.[O=C([C@H](Cc1ccc2ccccc2c1)N[*:1])[*:2]].K.L.K.K.[am]}$$$$V2.0; N-terminus assumed) | 17.6 | 16 (≈ 15.1 µM) | 4 to 8 | 27.4 | 27.1 | > 150 | 55.3 | 44.2 | 136 | 64 (≈ 60.6 µM) | < 8 | > 150 | > 150 | 96.7 | – | – | – | –
CCCCN(CC(=O)N[C@@H](CCCCN)C(=O)N(CC(=O)N(CC(=O)N(CC(N)=O)Cc1cccc2ccccc12)Cc1ccccc1)Cc1cccc2ccccc12)C(=O)[C@H](CCCCN)NC(=O)[C@@H](N)CCCCN [Compound 14, Lys-Lys-(N-Bu)Gly-Lys-(N1-Nal)Gly-(N-Phe)Gly-(N1-Nal)Gly] (H-KK[NBuGly]K[N(1-naphthylmethyl)Gly][Nphe][N(1-naphthylmethyl)Gly]-NH2) | 13.9 | 8 to 16 | 4 (≈ 3.79 µM) | 28.1 | 26.23 | > 150 | 66.4 | 54.0 | 118 | 32 (≈ 30.3 µM) | 31.6 | 93.1 | > 150 | 123.9 | amongst the top five most haemolytic compounds | – | – | –
CC(C)C[C@H](NC(=O)[C@H](CCCCN)NC(=O)[C@H](CCCCN)NC(=O)[C@@H](N)CCCCN)C(=O)N[C@@H](Cc1cccc2ccccc12)C(=O)N[C@@H](Cc1ccc(O)cc1)C(=O)N[C@@H](Cc1cccc2ccccc12)C(N)=O [Compound 19, Lys-Lys-Lys-Leu(1-Nal)Ala-Tyr-(1-Nal)Ala] (HELM PEPTIDE1{K.K.K.L.[O=C([C@H](Cc1cccc2ccccc12)N[*:1])[*:2]].Y.[O=C([C@H](Cc1cccc2ccccc12)N[*:1])[*:2]].[am]}$$$$V2.0) | < 8 | > 64 | – | 101 | 13.2 | 20.8 | 82.7 | 13.5 | 51.1 | > 64 | 101 | 45.0 | 74.9 | – | – | near total haemolysis | near total haemolysis | near total haemolysis
CCCC[C@H](NC(=O)[C@H](CCCCN)NC(=O)[C@H](CCCCN)NC(=O)[C@@H](N)CCCCN)C(=O)N[C@@H](Cc1ccc2ccccc2c1)C(=O)N[C@@H](Cc1ccc(O)cc1)C(=O)N[C@@H](Cc1ccc2ccccc2c1)C(N)=O [Compound 22, Lys-Lys-Lys-Nle-(2-Nal)Ala-Tyr-(2-Nal)Ala] (HELM PEPTIDE1{K.K.K.[Nle].[O=C([C@H](Cc1ccc2ccccc2c1)N[*:1])[*:2]].Y.[O=C([C@H](Cc1ccc2ccccc2c1)N[*:1])[*:2]].[am]}$$$$V2.0) | < 8 | 64 (≈ 59.7 µM) | 2 to 4 | 83 | 30.9 | 71.2 | 23.7 | 88.3 | > 150 | 64 (≈ 59.7 µM) | 24.2 | 83.0 | > 150 | – | – | – | – | –
